US5821046A, “RNA oligonucleotides that bind HIV tat protein” (RiboTargets Holdings PLC, priority 1990, dated 1998)
Entries after “also recorded” stand apart in the source; their conditions may differ. Read-outs that look alike come from different tables or passages of the source. [4sT] = 4-thio-2'-deoxythymidine; [5BrU] = 5-bromo-2'-deoxyuridine; d = 2'-deoxy (DNA); r = 2'-OH (RNA)

Columns and labels:
tat protein = experiment: competition filter binding assay with chemically synthesized RNA (Table 4); set-up: species or system HIV-1; details: for IC50: 40 nM tat, read-out: D1/2; for competition for tat binding compared with unmodified RNA: competition filter binding, FIGS. 19, 21-24, 26; for drop in D1/2 compared with unmodified duplex: modified 17-mer + 14-mer duplex
Experimental: Competition binding reactions (0.5ml) in TK buffer (50 mM Tris.HCl(pH7.9 at 0.5M and 22° G), 20 mM KCl ) included 10nM ^32 p labeled 59-mer (ca. 20,000 cpm) , 40nM tat protein, 5 ug/ml calf thymus DNA, 2 ug/ml yeast tRNA, 40 units of RNAsin (Promega) and varying concentrations (0-300 nM) of unlabeled competitor RNA (59-mer [SEQ ID NO: 1; ], 29-mer [SEQ ID NO: 12] or preannealed (slow cooled from 90° C.) 14-mer [SEQ ID NO: 14; nucleotides 2-15] and 17-mer [SEQ ID NO: 13; nucleotides 1- 17]). Binding was allowed to take place for 2-15 minutes on ice and each reaction was filtered through a twice prewashed (0.6 ml of ice-cold TK buffer) Millipore GS filter (2.5 cm disks, 0.22 um pore) and the filter washed with TK buffer (0.6 ml). Dried filters were counted by liquid scintillation. Results were plotted on a graph (FIG. 19) showing counts retained on the filter versus the concentration of competitor RNA added.
Competition binding reactions (0.5 ml) in TK buffer included 10 nM duplex formed from ^32 P-labeled and unlabeled 29-mer (ca. 20,000 cpm) or 10 nM duplex formed from ^32 P-labeled and unlabeled 17-mer annealed to unlabeled 14-mer, 40 nM tat protein, 5 ug/ml calf thymus DNA, 2 ug/ml yeast tRNA and varying concentrations (0-120 nM) of unlabeled competitor RNA (29-mer or modified 29-mer (FIG. 21), or 17-mer +14-mer duplex or modified 7-mer +14-mer duplex (22, 23 and 24) and were carried out as described above.
Competition binding reactions (0-5 ml) in TK buffer included 10 nM duplex formed from ^32 P-labelled (ca. 20,000 cpm) and unlabelled 18-mer [SEQ ID NO: 13] annealed to unlabelled 15-mer [SEQ ID NO: 14], 40 nM tat protein, 5 ug/ml calf thymus DNA, 2 ug/ml yeast TRNA and varying concentrations (0-120 nM) of unlabelled competitor RNA (59-mer [SEQ ID NO: 1] or 18-mer [SEQ ID NO: 13]+15-mer [SEQ ID NO: 14] duplex, or modified 18-mer [SEQ ID NO: […]

HIV-1 Tat = HIV-1 Tat (Human immunodeficiency virus 1, UniProt P04608 P04608:1-86); experiment: competition; D1/2; wild type 90 nM
[1] = 32P-end-labeled 17-mer annealed to 14-mer 10 nM, competitor 0-120 nM (dT series)
[2] = relative to 14 +17 duplex, 32P-end-labeled 17-mer annealed to 14-mer
[3] = BrdU series, relative to 14 +17 duplex
[4] = BrdU series, 32P-end-labelled 29-mer 10 nM, competitor 0-120 nM
[5] = 32P-end-labelled 29-mer 10 nM, competitor 0-120 nM
[6] = relative to 29-mer, 32P-end-labelled 29-mer 10 nM
[7] = 32P-end labelled 18-mer annealed to 15-mer
[8] = 32P-end labelled 18-mer annealed to 15-mer 10 nM, competitor 0-120 nM
[9] = relative to 14 +17 duplex, 32P-end labelled 18-mer annealed to 15-mer
[10] = 32P-labeled 59-mer transcript 10 nM

dT-23: 14-mer annealed to 17-mer where U23 is replaced by 2'-deoxythymidine (AGCCAGANUUGAGCAGC; 2'-deoxythymidine at 23, annealed 14-mer without entry, chemistry not fully specified)
IC50 (tat protein; [1]): 35 nM | competition for tat binding compared with unmodified RNA (tat protein): no effect on competition | competition for tat binding compared with unmodified RNA (tat protein; listed as SEQ ID NO: 17): competes for tat binding as well as unmodified duplex | Krel (29 or 14 +17) (tat protein; [2]): 1.1

dT-25: 14-mer annealed to 17-mer where U25 is replaced by 2'-deoxythymidine (AGCCAGAUUNGAGCAGC; 2'-deoxythymidine at 25, annealed 14-mer without entry, chemistry not fully specified)
IC50 (tat protein; [1]): 90 nM | competition for tat binding compared with unmodified RNA (tat protein): competes less well compared to unmodified duplex | drop in D1/2 compared with unmodified duplex (tat protein): 2-3 fold | Krel (29 or 14 +17) (tat protein; [2]): 0.4

BrdU-24: 14-mer annealed to 17-mer where U24 is replaced by 5-bromo-2'-deoxyuridine (AGCCAGAUUUGAGCAGC; DNA at 9, [5BrU] at 9, other sugars and backbone not given here; annealed to a 14-mer strand, further chemistry not fully specified)
Krel (29 or 14 +17) (tat protein; [3]): 1.0 | IC50 (tat protein; [4]): 45 nM | competition for tat binding compared with unmodified RNA (tat protein): no effect on competition | competition for tat binding compared with unmodified RNA (tat protein; listed as SEQ ID NO: 21): competes as well compared to unsubstituted duplex

2'-OmeU-23: chemically synthesized 29-mer where U23 is replaced by 2'-O-methyluridine (GCCAGANUUGAGCCUGGGAGCUCUCUGGC; 2'-O-methyluridine at U23, chemistry not fully specified)
IC50 (tat protein; [5]): 50 nM | competition for tat binding compared with unmodified RNA (tat protein; listed as SEQ ID NO: 16): competed as well as as unmodified 29-mer; also recorded: competes for tat binding as well as unmodified 29-mer | Krel (29 or 14 +17) (tat protein; [6]): 1.2

15 +18: duplex of unmodified 18-mer [SEQ ID NO: 13] and 15-mer [SEQ ID NO: 14] containing a U-rich bulge (chain 1 AGCCAGAUUUGAGCAGCU; chain 2 AGCUGCUCUCUGGCU; RNA, phosphodiester; duplex with U-rich bulge)
Krel (59-mer) (tat protein; [7]): 0.3 | IC50 (tat protein; [8]): 65 nM | competition for tat binding compared with unmodified RNA (tat protein): competed as well as 17-mer | Krel (29 or 14 +17) (tat protein; [9]): 0.8

BrdU-25: 14-mer annealed to 17-mer where U25 is replaced by 5-bromo-2'-deoxyuridine (AGCCAGAUUUGAGCAGC; sugars from the 5' end r9 d1 r7, [5BrU] at 10, backbone not given here; annealed to 14-mer strand)
Krel (29 or 14 +17) (tat protein; [3]): 1.1 | IC50 (tat protein; [4]): 35 nM | competition for tat binding compared with unmodified RNA (tat protein): no effect on competition | competition for tat binding compared with unmodified RNA (tat protein; listed as SEQ ID NO: 22): competes for tat binding as well compared to unsubstituted duplex

4-thioT-24: 15-mer annealed to 18-mer where U24 is replaced by 4-thio-2'-deoxythymidine (AGCCAGAUTUGAGCAGCU; sugars from the 5' end r8 d1 r9, [4sT] at 9, backbone not given here; annealed to 15-mer strand)
Krel (59-mer) (tat protein; [7]): 0.7 | IC50 (tat protein; [8]): 25 nM | competition for tat binding compared with unmodified RNA (tat protein): competes for binding better than unsubstituted duplex | Krel (29 or 14 +17) (tat protein; [9]): 2.0

4-thioT-25: 15-mer annealed to 18-mer where U25 is replaced by 4-thio-2'-deoxythymidine (AGCCAGAUUTGAGCAGCU; DNA at 10, [4sT] at 10, other sugars and backbone not given here; annealed to a 15-mer strand, further chemistry not fully specified)
Krel (59-mer) (tat protein; [7]): 1.5 | IC50 (tat protein; [8]): 12 nM | competition for tat binding compared with unmodified RNA (tat protein; listed as SEQ ID NO: 25): competes for binding better than unsubstituted duplex; also recorded: competes as well as unmodified 59-mer | Krel (29 or 14 +17) (tat protein; [9]): 4.2

r(GCCAGAUUUGAGCCUGGGAGCUCUCUGGC) (RNA, backbone not given here) [29-mer, chemically synthesized 29-mer, top part of TAR including loop and U-rich bulge]
IC50 (tat protein; [5]): 60 nM | Krel (59-mer) (tat protein; [10]): 0.4 | increase in D1/2 compared with 59-mer (tat protein; [10]): 2-3 fold | IC50 (tat protein; 32P-labeled 59-mer transcript 10 nM, competitor 0-300 nM): 100 nM | competition for tat binding compared with unmodified RNA (tat protein): competes for binding to tat almost as well as a 59-mer RNA transcript | Krel (29 or 14 +17) (tat protein; [6]): 1.0

dU-23: chemically synthesized 29-mer where U23 is replaced by 2'-deoxyuridine (GCCAGANUUGAGCCUGGGAGCUCUCUGGC; 2'-deoxyuridine at 23, chemistry not fully specified)
IC50 (tat protein; [5]): 55 nM | competition for tat binding compared with unmodified RNA (tat protein; listed as SEQ ID NO: 15): competed as well as as unmodified 29-mer; also recorded: competes for tat binding as well as unmodified 29-mer | Krel (29 or 14 +17) (tat protein; [6]): 1.1

dT-24: 14-mer annealed to 17-mer where U24 is replaced by 2'-deoxythymidine (AGCCAGAUNUGAGCAGC; 2'-deoxythymidine at 24, annealed 14-mer without entry, chemistry not fully specified)
IC50 (tat protein; [1]): 30 nM | competition for tat binding compared with unmodified RNA (tat protein): no effect on competition | competition for tat binding compared with unmodified RNA (tat protein; listed as SEQ ID NO: 18): competes for tat binding as well as unmodified duplex | Krel (29 or 14 +17) (tat protein; [2]): 1.2

BrdU-23: 14-mer annealed to 17-mer where U23 is replaced by 5-bromo-2'-deoxyuridine (AGCCAGAUUUGAGCAGC; DNA at 8, [5BrU] at 8, other sugars and backbone not given here; annealed to a 14-mer strand, further chemistry not fully specified)
Krel (29 or 14 +17) (tat protein; [3]): 0.6 | IC50 (tat protein; [4]): 70 nM | competition for tat binding compared with unmodified RNA (tat protein): competes for tat binding less well | drop in D1/2 compared with unmodified duplex (tat protein): 2 fold

B1: TAR bulge CUU (ssRNA)
RNA: GGGUCUCUCUGGUUAGACCAGACUUGAGCCUGGGAGCUCUCUGGCUAACUAGGGAACCC
modifications: [23]
IC50 (HIV-1 Tat): 630 nM

B2: TAR U40 to A40 (ssRNA)
RNA: GGGUCUCUCUGGUUAGACCAGAUUUGAGCCUGGGAGCUCACUGGCUAACUAGGGAACCC
IC50 (HIV-1 Tat): 5620 nM

B3: TAR bulge CCC (ssRNA)
RNA: GGGUCUCUCUGGUUAGACCAGACCCGAGCCUGGGAGCUCUCUGGCUAACUAGGGAACCC
modifications: [23,24,25]
IC50 (HIV-1 Tat): 1780 nM

B4: TAR bulge CUC (ssRNA)
RNA: GGGUCUCUCUGGUUAGACCAGACUCGAGCCUGGGAGCUCUCUGGCUAACUAGGGAACCC
modifications: [23,25]
IC50 (HIV-1 Tat): 2140 nM

B5: TAR bulge CCU (ssRNA)
RNA: GGGUCUCUCUGGUUAGACCAGACCUGAGCCUGGGAGCUCUCUGGCUAACUAGGGAACCC
modifications: [23,24]
IC50 (HIV-1 Tat): 1330 nM

B6: TAR bulge CC (ssRNA)
RNA: GGGUCUCUCUGGUUAGACCAGACCGAGCCUGGGAGCUCUCUGGCUAACUAGGGAACCC
IC50 (HIV-1 Tat): 2370 nM

B7: TAR bulge U (ssRNA)
RNA: GGGUCUCUCUGGUUAGACCAGAUGAGCCUGGGAGCUCUCUGGCUAACUAGGGAACCC
modifications: [23-25]
IC50 (HIV-1 Tat): 673 nM
